Laboratory results reported in the supplement of paper PMC11061612.

Tests used:
Experiment in all cases: Bliss excess, mean over the matrix (fraction); higher = more synergy
EW-13 (Ewing's Sarcoma) = test system: EW-13 (Ewing's Sarcoma)
Summary of the method: (§1)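 After 24 hours at 37°C and 5% CO2 in 1536-well plates, cells in DMEM/F12 or RPMI plus 10% FBS received two-drug dose matrices for 72 hours. Viability came from CellTiter-Glo 2.0 luminescence and was scaled as inhibition, anchored at 0 by vehicle wells and at 1 by blank wells. Combination Emax is taken as the second-highest inhibition in the matrix, and Bliss excess as the observed combination effect less EA + EB − EA·EB, with EA and EB the single-agent effects.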

[1] = test system: PFSK-1 (Other Solid Carcinomas)
Summary of the method: as §1

[2] = test system: LOU-NH91 (Squamous Cell Lung Carcinoma)
Summary of the method: as §1

NB7 (Neuroblastoma) = test system: NB7 (Neuroblastoma)
Summary of the method: as §1

[3] = test system: PF-382 (T-Lymphoblastic Leukemia)
Summary of the method: as §1

EW-18 (Ewing's Sarcoma) = test system: EW-18 (Ewing's Sarcoma)
Summary of the method: as §1

[4] = test system: H-EMC-SS (Chondrosarcoma)
Summary of the method: as §1

BT-20 (Breast Carcinoma) = test system: BT-20 (Breast Carcinoma)
Summary of the method: as §1

EW-3 (Ewing's Sarcoma) = test system: EW-3 (Ewing's Sarcoma)
Summary of the method: as §1

[5] = test system: HuP-T3 (Pancreatic Carcinoma)
Summary of the method: as §1

[6] = test system: OVISE (Ovarian Carcinoma)
Summary of the method: as §1

[7] = test system: OCUB-M (Breast Carcinoma)
Summary of the method: as §1

[8] = test system: OCUM-1 (Gastric Carcinoma)
Summary of the method: as §1

GOTO (Neuroblastoma) = test system: GOTO (Neuroblastoma)
Summary of the method: as §1

[9] = test system: DG-75 (Burkitt's Lymphoma)
Summary of the method: as §1

[10] = test system: EBC-1 (Squamous Cell Lung Carcinoma)
Summary of the method: as §1

[11] = test system: LC4-1 (B-Lymphoblastic Leukemia)
Summary of the method: as §1

[12] = test system: NCI-H513 (Other Solid Carcinomas)
Summary of the method: as §1

[13] = test system: KYSE-50 (Esophageal Squamous Cell Carcinoma)
Summary of the method: as §1

[14] = test system: EMC-BAC-2 (Non-Small Cell Lung Carcinoma)
Summary of the method: as §1

| SMILES | Bliss excess (EW-13 (Ewing's Sarcoma)) | Bliss excess [1] | Bliss excess [2] | Bliss excess (NB7 (Neuroblastoma)) | Bliss excess [3] | Bliss excess (EW-18 (Ewing's Sarcoma)) | Bliss excess [4] | Bliss excess (BT-20 (Breast Carcinoma)) | Bliss excess (EW-3 (Ewing's Sarcoma)) | Bliss excess [5] | Bliss excess [6] | Bliss excess [7] | Bliss excess [8] | Bliss excess (GOTO (Neuroblastoma)) | Bliss excess [9] | Bliss excess [10] | Bliss excess [11] | Bliss excess [12] | Bliss excess [13] | Bliss excess [14] |
| --- | --- | --- | --- | --- | --- | --- | --- | --- | --- | --- | --- | --- | --- | --- | --- | --- | --- | --- | --- | --- |
| CC(=O)c1c(C)c2cnc(Nc3ccc(N4CCNCC4)cn3)nc2n(C2CCCC2)c1=O [Palbociclib] + Cc1c2c(nn1C)CSCc1cc(n(C)n1)CSc1cc(c3ccccc3c1)OCCCc1c(C(=O)O)n(C)c3c-2c(Cl)ccc13 [AZD5991] (first compound max 10 µM, 7x7, partner max 1 µM) | -0.0346 | -0.0471 | -0.0901 | 0.054 | -0.0193 | -0.0135 | 0.0444 | -0.0834 | -0.0003 | -0.072 | -0.0286 | -0.0004 | -0.0315 | 0.0483 | 0.0332 | 0.0345 | -0.0081 | -0.0484 | -0.0658 | -0.0991 |
| Cc1c2c(nn1C)CSCc1cc(n(C)n1)CSc1cc(c3ccccc3c1)OCCCc1c(C(=O)O)n(C)c3c-2c(Cl)ccc13 [AZD5991] + C[C@@H]1COCCN1C2=NC(=NC(=C2)C3(CC3)[S@](=N)(=O)C)C4=C5C=CNC5=NC=C4 [AZD6738] (first compound max 1 µM, 7x7, partner max 10 µM) | -0.0056 | 0.0139 | 0.0408 | 0.028 | 0.063 | -0.0141 | 0.0187 | 0.0977 | 0.0207 | -0.0053 | -0.0118 | 0.0339 | -0.0052 | -0.0213 | -0.0464 | 0.039 | 0.0101 | 0.0278 | -0.0348 | 0.066 |
| Cc1c2c(nn1C)CSCc1cc(n(C)n1)CSc1cc(c3ccccc3c1)OCCCc1c(C(=O)O)n(C)c3c-2c(Cl)ccc13 [AZD5991] + C[C@@H](Nc1cc(F)cc(F)c1)c1cc(C(=O)N(C)C)cc2c(=O)cc(N3CCOCC3)oc12 [AZD8186] (first compound max 1 µM, 7x7, partner max 3 µM) | -0.0535 | 0.0429 | -0.0542 | 0.0187 | 0.005 | 0.0122 | -0.0325 | 0.0382 | -0.0129 | -0.0622 | 0.0069 | -0.0067 | -0.0302 | -0.0589 | 0.0008 | 0.0298 | -0.057 | 0.0221 | 0.0319 | -0.0336 |
| Cn1cnc2c(F)c(Nc3ccc(Br)cc3Cl)c(C(=O)NOCCO)cc21 [Selumetinib] + C[C@@H]1COCCN1C2=NC(=NC(=C2)C3(CC3)[S@](=N)(=O)C)C4=C5C=CNC5=NC=C4 [AZD6738] (first compound max 10 µM, 7x7, partner max 10 µM) | -0.0267 | -0.0535 | 0.0302 | -0.0257 | -0.0047 | -0.0471 | -0.0405 | 0.0733 | -0.0489 | 0.048 | -0.0405 | -0.0604 | -0.0359 | 0.0043 | -0.0328 | -0.0062 | -0.0168 | 0.0555 | 0.0013 | 0.0202 |
| CC1(C)CCC(CN2CCN(c3ccc(C(=O)NS(=O)(=O)c4ccc(NCC5CCOCC5)c([N+](=O)[O-])c4)c(Oc4cnc5[nH]ccc5c4)c3)CC2)=C(c2ccc(Cl)cc2)C1 [Venetoclax] + Cc1cc2ncnn2cc1Nc1ncc2c(n1)n(C1CCOCC1)c(=O)n2C [AZD7648] (first compound max 1 µM, 7x7, partner max 10 µM) | -0.0417 | 0.0904 | -0.0202 | -0.018 | -0.0134 | 0.0188 | -0.0179 | -0.0229 | 0.0149 | -0.0331 | -0.0464 | -0.0149 | -0.0144 | -0.0442 | -0.0157 | 0.031 | 0.0187 | -0.0321 | 0.0065 | -0.0596 |
| Cn1cnc2c(F)c(Nc3ccc(Br)cc3Cl)c(C(=O)NOCCO)cc21 [Selumetinib] + CC(C)n1c(=O)n(C)c2cnc3cc(F)c(-c4ccc(OCCCN5CCCCC5)nc4)cc3c21 [AZD1390] (first compound max 10 µM, 7x7, partner max 0.3 µM) | -0.0428 | -0.0492 | 0.0028 | -0.0326 | -0.0238 | -0.0359 | -0.0135 | -0.0189 | -0.0455 | -0.0046 | -0.0339 | -0.0332 | -0.0152 | 0.0225 | -0.024 | -0.0265 | -0.0312 | -0.0769 | -0.0046 | 0.0079 |
| COc1cc2ncnc(Nc3ccc(F)c(Cl)c3)c2cc1OCCCN1CCOCC1 [Gefitinib] + CC(C)n1c(=O)n(C)c2cnc3cc(F)c(-c4ccc(OCCCN5CCCCC5)nc4)cc3c21 [AZD1390] (first compound max 10 µM, 7x7, partner max 0.3 µM) | -0.0568 | -0.0688 | -0.0195 | -0.0402 | -0.0668 | -0.0343 | -0.0502 | -0.047 | -0.0347 | -0.0595 | -0.0739 | -0.0537 | -0.101 | -0.07 | -0.0333 | -0.0434 | -0.0408 | -0.0828 | -0.0546 | -0.0706 |
